Source: patent US20150105252A1, “SUBSTITUTED PYRAZOLES AS HERBICIDES” (E I DU PONT DE NEMOURS AND COMPANY, priority 2013, published 2015)

Legend:
galium = assay: Test C preemergence; assay type: in vivo, Galium aparine
Method in brief: (§1)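 Herbicidal effect is expressed as percent visual control (0–100) judged against untreated plants 13 to 15 days after treatment in the greenhouse. Preemergence pots contained seeds in a soil–sand blend; postemergence plants, 2–18 cm tall, grew in peat-based planting medium.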

nutsedge, yellow = assay: Test C postemergence; assay type: in vivo, Cyperus esculentus; settings: for Plant response rating (scale of 0 to 100 where 0 is no effect and 100 is complete control), Nutsedge, Yellow: Postemergence, 31 g ai/ha, visually evaluated after 13 to 15 days; for Nutsedge, Yellow plant response rating / Plant response rating, Nutsedge, Yellow: postemergence; for Nutsedge, Yellow plant response rating: 62 g ai/ha, scale 0 to 100
Method in brief: as §1

pigweed [1] = assay: Test A postemergence; assay type: in vivo, Amaranthus retroflexus
Method in brief: (§2)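 Visual injury ratings, 0 = no effect to 100 = complete control, taken about 10 days after treatment against untreated controls. Test chemicals, in a non-phytotoxic surfactant-containing solvent, were sprayed onto soil preemergence or onto one- to two-leaf plants (2–10 cm) postemergence, in loam–sand soil under greenhouse conditions.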

corn [2] = assay: Test C preemergence; assay type: in vivo, Zea mays
Method in brief: as §1

blackgrass = assay: Test C postemergence; assay type: in vivo, Alopecurus myosuroides; settings: for Plant response rating (scale of 0 to 100 where 0 is no effect and 100 is complete control), Blackgrass: Postemergence, 31 g ai/ha, visually evaluated after 13 to 15 days; for Blackgrass plant response rating / Plant response rating, Blackgrass: postemergence; for Blackgrass plant response rating: 62 g ai/ha, scale 0 to 100
Method in brief: as §1

ragweed [3] = assay: Test C preemergence; assay type: in vivo, Ambrosia elation
Method in brief: as §1

corn [4] = assay: Test A postemergence; assay type: in vivo, Zea mays
Method in brief: as §2

ragweed [5] = assay: Test C postemergence; assay type: in vivo, Ambrosia elation
Method in brief: as §1

crabgrass, large = assay: Test A preemergence; assay type: in vivo, Digitaria sanguinalis; settings: for Crabgrass, Large plant response rating (0 to 100 scale): visual injury approx. 10 days after treatment
Method in brief: as §2

rice = assay: Test B flood; assay type: in vivo, Oryza sativa; settings: 250 g ai/ha, visual rating on 0 to 100 scale (0 no effect, 100 complete control), 13 to 15 days
Method in brief: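 Response scored visually, 0–100 relative to controls, 13–15 days after the compound was applied into paddy water; plants were at the 2-leaf stage in pots kept flooded to 3 cm.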

velvetleaf = assay: Test A preemergence; assay type: in vivo, Abutilon theophrasti; settings: for Velvetleaf plant response rating (0 to 100 scale): visual injury approx. 10 days after treatment
Method in brief: as §2

pigweed [6] = assay: Test C postemergence; assay type: in vivo, Amaranthus retroflexus; settings: for Pigweed plant response rating / Plant response rating, Pigweed: postemergence; for Pigweed plant response rating: 62 g ai/ha, scale 0 to 100
Method in brief: as §1

wheat = assay: Test A preemergence; assay type: in vivo, Triticum aestivum; settings: preemergence; for Wheat plant response rating (0 to 100 scale): visual injury approx. 10 days after treatment
Method in brief: as §2

foxtail, giant = assay: Test A preemergence; assay type: in vivo, Setaria faberii; settings: for Foxtail, Giant plant response rating (0 to 100 scale): visual injury approx. 10 days after treatment
Method in brief: as §2

[7] = preemergence, 31 g ai/ha, visual rating, scale 0 to 100 (0 no effect, 100 complete control), 13 to 15 days
[8] = preemergence, 62 g ai/ha, scale 0 to 100 (0 no effect, 100 complete control), 13 to 15 days
[9] = preemergence, 125 g ai/ha, 13 to 15 days, scale 0 to 100, 0 = no effect, 100 = complete control
[10] = preemergence, 250 g ai/ha, scale 0 to 100, 0 is no effect, 100 is complete control
[11] = 250 g ai/ha, scale 0 to 100 (0 no effect, 100 complete control)
[12] = 125 g ai/ha, scale 0 to 100, 0 no effect, 100 complete control
[13] = Postemergence, 500 g ai/ha, 0 to 100 scale (0 no effect, 100 complete control)
[14] = postemergence, 125 g ai/ha, about 10 days, visual rating on 0 to 100 scale (0 no effect, 100 complete control)
[15] = postemergence, 250 g ai/ha, scale 0 to 100 (0 no effect, 100 complete control)
[16] = postemergence, 125 g ai/ha, scale 0 to 100, 0 no effect, 100 complete control
[17] = preemergence, 500 g ai/ha, visual injury after approx. 10 days, 0 to 100 scale (0 no effect, 100 complete control)
[18] = 500 g ai/ha, visual injury after approx. 10 days, 0 to 100 scale (0 no effect, 100 complete control)
[19] = preemergence, 31 g ai/ha, scale 0 to 100 (0 no effect, 100 complete control), 13 to 15 days
[20] = preemergence, 62 g ai/ha, 13 to 15 days, scale 0 to 100, 0 = no effect, 100 = complete control
[21] = preemergence, 125 g ai/ha, scale 0 to 100, 0 is no effect, 100 is complete control
[22] = Postemergence, 500 g ai/ha, visual rating after approx. 10 days, 0 to 100 scale (0 no effect, 100 complete control)
[23] = Postemergence, 31 g ai/ha, visually evaluated after 13 to 15 days
[24] = Preemergence, 500 g ai/ha, 0 to 100 scale, 0 no effect, 100 complete control
[25] = preemergence, 125 g ai/ha, visual injury, 0 to 100 scale, approx. 10 days
[26] = Preemergence, rate head not shown (block before 16 g ai/ha), scale 0 to 100
[27] = Postemergence, 125 g ai/ha, 0 to 100 scale, 0 no effect, 100 complete control

CCCNC(=O)c1cc(CCF)n(Cc2ccnc(C(F)(F)F)c2)n1 [Compound 177]
Galium plant response rating (galium; [7]): 100 | Galium plant response rating (galium; [8]): 100 | Plant response rating, Galium (galium; [9]): 100 | Galium plant response rating (galium; [10]): 100 | Plant response rating (scale of 0 to 100 where 0 is no effect and 100 is complete control), Nutsedge, Yellow (nutsedge, yellow): 10 | Nutsedge, Yellow plant response rating (nutsedge, yellow): 5 | Plant response rating, Nutsedge, Yellow (nutsedge, yellow; [11]): 15 | Plant response rating, Nutsedge, Yellow (nutsedge, yellow; [12]): 5 | Pigweed plant response rating (pigweed [1]; [13]): 100 | Pigweed plant response rating (pigweed [1]; [14]): 100 | Corn plant response rating (corn [2]; [7]): 5 | Corn plant response rating (corn [2]; [8]): 40 | Plant response rating, Corn (corn [2]; [9]): 90 | Corn plant response rating (corn [2]; [10]): 98 | Plant response rating (scale of 0 to 100 where 0 is no effect and 100 is complete control), Blackgrass (blackgrass): 20 | Blackgrass plant response rating (blackgrass): 15 | Plant response rating, Blackgrass (blackgrass; [11]): 35 | Plant response rating, Blackgrass (blackgrass; [12]): 20 | Ragweed plant response rating (ragweed [3]; [7]): 75 | Ragweed plant response rating (ragweed [3]; [8]): 85 | Plant response rating, Ragweed (ragweed [3]; [9]): 98 | Ragweed plant response rating (ragweed [3]; [10]): 98 | Corn plant response rating (corn [4]; [13]): 100 | Corn plant response rating (corn [4]; [14]): 90 | Plant response rating, Ragweed (ragweed [5]; [15]): 75 | Plant response rating, Ragweed (ragweed [5]; [16]): 70 | Crabgrass, Large plant response rating (0 to 100 scale) (crabgrass, large; preemergence, 125 g ai/ha): 100 | Crabgrass, Large plant response rating (crabgrass, large; [17]): 100 | Plant response rating, Rice (rice): 15 | Velvetleaf plant response rating (0 to 100 scale) (velvetleaf; preemergence, 125 g ai/ha): 40 | Velvetleaf plant response rating (velvetleaf; [17]): 100 | Pigweed plant response rating (pigweed [6]): 40 | Plant response rating, Pigweed (pigweed [6]; [11]): 85 | Plant response rating, Pigweed (pigweed [6]; [12]): 75 | Wheat plant response rating (0 to 100 scale) (wheat; 125 g ai/ha): 10 | Wheat plant response rating (wheat; [18]): 100 | Foxtail, Giant plant response rating (0 to 100 scale) (foxtail, giant; preemergence, 125 g ai/ha): 100 | Foxtail, Giant plant response rating (foxtail, giant; [17]): 100

CCc1cc(C(=O)NC2CC2)nn1Cc1ccnc(C(F)(F)F)c1 [Compound 76]
Plant response rating (scale of 0 to 100), Galium (galium; Preemergence, 250 g ai/ha): 100 | Galium plant response rating (galium; [19]): 98 | Plant response rating, Galium (galium; [20]): 100 | Galium plant response rating (galium; [21]): 100 | Plant response rating (scale of 0 to 100 where 0 is no effect and 100 is complete control), Nutsedge, Yellow (nutsedge, yellow): 5 | Nutsedge, Yellow plant response rating (nutsedge, yellow): 5 | Plant response rating, Nutsedge, Yellow (nutsedge, yellow; [11]): 5 | Plant response rating, Nutsedge, Yellow (nutsedge, yellow; [12]): 5 | Pigweed plant response rating (pigweed [1]; [22]): 100 | Pigweed plant response rating (pigweed [1]; [14]): 100 | Plant response rating (scale of 0 to 100), Corn (corn [2]; Preemergence, 250 g ai/ha): 100 | Corn plant response rating (corn [2]; [19]): 40 | Plant response rating, Corn (corn [2]; [20]): 80 | Corn plant response rating (corn [2]; [21]): 100 | Plant response rating (scale of 0 to 100 where 0 is no effect and 100 is complete control), Blackgrass (blackgrass): 5 | Blackgrass plant response rating (blackgrass): 5 | Plant response rating, Blackgrass (blackgrass; [11]): 10 | Plant response rating, Blackgrass (blackgrass; [12]): 5 | Plant response rating (scale of 0 to 100), Ragweed (ragweed [3]; Preemergence, 250 g ai/ha): 100 | Ragweed plant response rating (ragweed [3]; [19]): 90 | Plant response rating, Ragweed (ragweed [3]; [20]): 100 | Ragweed plant response rating (ragweed [3]; [21]): 100 | Corn plant response rating (corn [4]; [22]): 90 | Corn plant response rating (corn [4]; [14]): 80 | Plant response rating (scale of 0 to 100 where 0 is no effect and 100 is complete control), Ragweed (ragweed [5]; [23]): 55 | Ragweed plant response rating (ragweed [5]; postemergence, 62 g ai/ha, scale 0 to 100): 75 | Plant response rating, Ragweed (ragweed [5]; [15]): 90 | Plant response rating, Ragweed (ragweed [5]; [16]): 75 | Crabgrass, Large plant response rating (crabgrass, large; [24]): 100 | Crabgrass, Large plant response rating (crabgrass, large; [25]): 90 | Plant response rating, Rice (rice): 20 | Velvetleaf plant response rating (velvetleaf; [24]): 60 | Velvetleaf plant response rating (velvetleaf; [25]): 20 | Plant response rating (scale of 0 to 100 where 0 is no effect and 100 is complete control), Pigweed (pigweed [6]; [23]): 60 | Pigweed plant response rating (pigweed [6]): 60 | Plant response rating, Pigweed (pigweed [6]; [11]): 98 | Plant response rating, Pigweed (pigweed [6]; [12]): 90 | Wheat plant response rating (wheat; 125 g ai/ha, visual injury, 0 to 100 scale, approx. 10 days): 30 | Wheat plant response rating (wheat; [18]): 90 | Foxtail, Giant plant response rating (foxtail, giant; [24]): 100 | Foxtail, Giant plant response rating (foxtail, giant; [25]): 80

CCc1cc(C(=O)NCC(F)(F)F)nn1Cc1ccnc(Br)c1 [Compound 224]
Plant response rating, Galium (galium; [26]): 80 | Galium plant response rating (galium; [8]): 80 | Plant response rating, Galium (galium; [9]): 100 | Galium plant response rating (galium; [10]): 90 | Plant response rating (scale of 0 to 100 where 0 is no effect and 100 is complete control), Nutsedge, Yellow (nutsedge, yellow): 0 | Nutsedge, Yellow plant response rating (nutsedge, yellow): 0 | Plant response rating, Nutsedge, Yellow (nutsedge, yellow; [11]): 5 | Plant response rating, Nutsedge, Yellow (nutsedge, yellow; [12]): 5 | Pigweed plant response rating (pigweed [1]; [27]): 100 | Pigweed plant response rating (pigweed [1]; [13]): 100 | Plant response rating, Corn (corn [2]; Preemergence, rate head not shown (block before 16 g ai/ha), scale 0 to 100, 100 is complete control): 0 | Corn plant response rating (corn [2]; [8]): 5 | Plant response rating, Corn (corn [2]; [9]): 15 | Corn plant response rating (corn [2]; [10]): 60 | Plant response rating (scale of 0 to 100 where 0 is no effect and 100 is complete control), Blackgrass (blackgrass): 5 | Blackgrass plant response rating (blackgrass): 5 | Plant response rating, Blackgrass (blackgrass; [11]): 20 | Plant response rating, Blackgrass (blackgrass; [12]): 5 | Plant response rating, Ragweed (ragweed [3]; [26]): 85 | Ragweed plant response rating (ragweed [3]; [8]): 85 | Plant response rating, Ragweed (ragweed [3]; [9]): 95 | Ragweed plant response rating (ragweed [3]; [10]): 100 | Corn plant response rating (corn [4]; [27]): 60 | Corn plant response rating (corn [4]; [13]): 90 | Plant response rating, Ragweed (ragweed [5]; [15]): 35 | Plant response rating, Ragweed (ragweed [5]; [16]): 10 | Crabgrass, Large plant response rating (0 to 100 scale) (crabgrass, large; preemergence, 125 g ai/ha): 100 | Crabgrass, Large plant response rating (crabgrass, large; [17]): 100 | Plant response rating, Rice (rice): 20 | Velvetleaf plant response rating (0 to 100 scale) (velvetleaf; preemergence, 125 g ai/ha): 100 | Pigweed plant response rating (pigweed [6]): 50 | Plant response rating, Pigweed (pigweed [6]; [11]): 75 | Plant response rating, Pigweed (pigweed [6]; [12]): 50 | Wheat plant response rating (0 to 100 scale) (wheat; 125 g ai/ha): 30 | Foxtail, Giant plant response rating (0 to 100 scale) (foxtail, giant; preemergence, 125 g ai/ha): 100 | Foxtail, Giant plant response rating (foxtail, giant; [17]): 100
